In patent publication US20130005802A1, “TREATMENT OF WNT/FRIZZLED-RELATED DISEASES” (priority 2009, published 2013):

What was measured:
[1] = system: HCT116 tumors; experiment: In vivo anti-tumor effect, HCT116 tumors; design: species or system NOD/SCID mice
Experimental: HCT116 colon cancer cells were harvested from flasks with 0.05% Trypsin/EDTA, washed with PBS, and resuspended with Hanks buffered solution at 5×10^6 cells/100 μL concentration. CRC explants (CRC039) cultured in vitro were harvested with the same procedure, and mixed with equal volume of Matrigel to make 1×10^6 cells/100 μL concentration. A hundred μL of cell suspension was inoculated to the flank of NOD/SCID mice 4 days before the start of treatment. […] Tumor size was measured 3 times a week until mice were sacrificed.
HCT116 colon cancer cells were harvested from flasks with 0.05% Trypsin/EDTA and resuspended with Hanks buffered solution at 5×10^6 cells/100 μL concentration. CRC explants (CRC039) cultured in vitro were harvested with the same procedure and mixed with equal volume of Matrigel to make 1×10^6 cells/100 μL concentration. The cell suspension (100 μL) was inoculated into the flank of NOD/SCID mice 4 days before the start of treatment. […] Initially, 2 weeks of treatment was planned for both HCT116 and CRC039. However, treatment was extended to 3 weeks for CRC039 cells because the […] grew much slower than the HCT116 cell line. Tumor size was measured 3 times a week until mice were euthanized.

[2] = system: CRC119 tumor cells; experiment: Flow-based cytotoxicity assay (annexin V), CRC119; assay type: cell-based; conditions: 3 days, 0.2-20 μM
Experimental: After 3 days incubation, all cells were harvested with 0.05% trypsin/EDTA and spun down by centrifugation. Cells were labeled with biotin-conjugated Annexin V, and then stained with 7-AAD and Streptavidin-APC. Samples were acquired by FACSCalibur machine (BD Bioscience) and analyzed with CellQuest software. Cells were analyzed for expression of Annexin V as a marker of apoptosis.
Annexin V may be used as a marker for apoptosis and other forms of cell death. […] After 3 days of incubation, all cells were harvested with 0.05% trypsin/EDTA, labeled with biotin-conjugated Annexin V, and then stained with 7-AAD and streptavidin-APC. Samples were acquired by FACSCalibur, and percentages of annexin V-positive cells were analyzed and plotted as shown in FIG. 11. Cells were analyzed for expression of Annexin V as a marker of apoptosis.

[3] = target: Frizzled1-GFP (Rattus norvegicus, UniProt Q08463); experiment: Image-based Frizzled1-GFP internalization assay (primary screening assay) in Fzd1GFP-U2OS cells; assay type: cell-based; conditions: 6 hr, 0.47-7.5 μM tested
Experimental: To obtain a Frizzled1-GFP stable cell line (Fzd1GFP-U2OS), U2OS cells were transfected with pCS2ratFrizzled1-GFP and pLKO.1 (10:1 ratio by weight), using the Nucleofection transfection protocol from Amaxa, and stable receptor expressing clones were selected using 1.5 μg/mL puromycin in the culture medium. For generating TOPFlash stable cell lines, HEK293 cells were transfected with p8xTOPFlash, the Renilla luciferase plasmid, and pLKO.1 at a ratio by weight of 10:3:1 and stable clones selected using 1 μg/mL puromycin in the growth medium. pLKO.1 was used to confer puromycin resistance to the stable clones.
The plates were incubated overnight at 37° C. in 5% CO2. […]
To measure the number of the internalized vesicles per cell, cytosol was carefully traced to exclude cell membrane. […] The number of internalized vesicles per cell was counted by the Metamorph software. More than 30 cells per sample were analyzed to obtain statistical significance. […]
To determine the time-course of internalization for Frizzled1-GFP receptors, the accumulation of cytosolic puncta/vesicles was measured (FIG. 4A-4E). Internalization was assessed by counting the number of Frizzled1-GFP containing vesicles in the cytosol using the computer program Metamorph, and the results are presented in the graph for the given times (0 hr, n=51 cells; 1 hr, n=69; 2 hr, n=32; 4 hr, n=55, and 6 hr, n=61). […]

[4] = in vivo; conditions: NOD/SCID, mouse, po, 200 mg/kg
Experimental: Blood samples were obtained from vena cava following euthanasia by ketamin injection at predose and at 0.25, 0.5, 0.75, 1, 1.5, 4, 8, 12, 24 hr after drug administration. Blood samples were put into eppendorf tubes containing 10 μL of heparin (1000 U/mL), centrifuged at 1,200 g for 10 min. Plasma were collected and frozen at −20° C. until HPLC analysis.
The Calibration curve was linear from 0.2 ng/mL (lower limit of quantitation, LLOQ) to 300 ng/mL.
Blood samples were obtained from vena cava at predose and at 0.25, 0.5, 0.75, 1, 1.5, 4, 8, 12, 24 hr after drug administration. Plasma was collected by the centrifugation (1,200 g, 10 min) of blood with heparin (100 U/mL).

[5] = system: β-catenin; experiment: Immunoblot of Wnt3A-stimulated β-catenin stabilization in U2OS cells; assay type: cell-based
Description: After treatment, cytosolic fraction as well as cellular membrane were isolated as described (Mikels, A. J., et al. PLoS Biol 2006, 4, e115, incorporated herein by reference in its entirety). Immunoblots using β-catenin or Dishevelled-2 antibody were used to detect the respective protein levels in cytosol or on membrane, with β-actin immunoblots used for loading controls.
The accumulation of cytosolic β-catenin is a measure of canonical Wnt signaling (Mikels, A. J., and Nusse, R. PLoS Biol 2006, 4, e115, incorporated herein by reference).

Sequence of Frizzled1-GFP (Q08463 69-641): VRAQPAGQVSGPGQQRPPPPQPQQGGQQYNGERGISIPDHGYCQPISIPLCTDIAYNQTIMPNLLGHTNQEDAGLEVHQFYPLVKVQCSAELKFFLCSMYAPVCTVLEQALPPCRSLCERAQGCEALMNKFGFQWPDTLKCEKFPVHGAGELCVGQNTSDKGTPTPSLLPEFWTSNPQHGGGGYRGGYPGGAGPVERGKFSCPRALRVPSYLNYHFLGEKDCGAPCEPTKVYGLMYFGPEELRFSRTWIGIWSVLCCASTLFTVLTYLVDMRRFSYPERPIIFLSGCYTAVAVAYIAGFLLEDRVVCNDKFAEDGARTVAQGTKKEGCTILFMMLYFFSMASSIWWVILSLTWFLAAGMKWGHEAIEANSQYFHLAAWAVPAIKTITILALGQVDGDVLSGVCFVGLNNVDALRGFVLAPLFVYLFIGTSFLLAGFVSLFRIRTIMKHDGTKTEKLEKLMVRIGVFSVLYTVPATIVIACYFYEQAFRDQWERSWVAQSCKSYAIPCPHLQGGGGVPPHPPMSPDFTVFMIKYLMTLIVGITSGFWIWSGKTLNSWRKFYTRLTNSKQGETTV

O=C(Nc1ccc([N+](=O)[O-])cc1Cl)c1cc(Cl)ccc1O [niclosamide]
tumor volume vs control ([1]; 200 mg/kg gavage, after two weeks): less than half a volume
tumor growth ([1]; 10, 100 or 200 mg/kg gavage, 6 days per week, 2 weeks): significantly inhibited the growth
concentration with steep increase of annexin V-positive cells [2]: 1 µM
concentration with significant increase in the number of internalized receptors [3]: 1 to 2 µM
Cmax [4]: 894 ng/mL
Elimination rate (z-lambda) [4]: 0.217 h⁻¹
Tmax [4]: 0.25 h
concentration at 1.5 hr [4]: 77.6 ng/mL
half-life [4]: 3.2 h
Wnt3A-stimulated cytosolic β-catenin stabilization ([5]; 7.5 μM, cytosol): prevented
membrane-bound β-catenin levels ([5]; 7.5 μM, membrane): relatively unchanged
concentration range of the inhibitory effect on β-catenin stabilization ([5]; immunoblot, n=3): 1 to 7.5 µM
IC50 ([5]; immunoblot, n=3, read-out: half maximal inhibition of Wnt3A signaling (β-catenin stabilization)): ~1 µM
